Values quoted from earlier work in patent publication US20080227813A1, “Pharmaceutical compositions and methods for treating diseases associated with neurodegeneration” (priority 2006, published 2008).

System: patients suffering from ALS
Settings: riluzole alone, previous studies; cited from earlier work

## Nc1nc2ccc(OC(F)(F)F)cc2s1 [riluzole, Riluzole]
  effect on VC: failed to demonstrate any effect
